Here are results for one compound from patent publication US8518953B2, “Aminopyrimidines useful as inhibitors of protein kinases” (Vertex Pharmaceuticals Incorporated, priority 2007, dated 2013).

Molecules are shown by their SMILES.

Test [1] deals with T1, GSK3α TYR 279 (Homo sapiens, UniProt P49840).
T1 construct: western blotting of Jurkat cells dosed with the compounds; endogenous in cells; host or cells: Jurkat cells
Description: GSK-3α p-TYR Inhibition Assay (western blotting of Jurkat cells). Type of test: cell-based. The following applies: western blot, read-out: GSK3a pTYR 279: IC50. How it is done:
Compounds are screened for their ability to inhibit the phosphorylation of tyrosine (TYR) residues through the use of western blotting of Jurkat cells dosed with the compounds. The phosphorylation of the specific TYR residues tested are GSK3α TYR 279 and GSK3β TYR 216.
Jurkat cells are seeded at a density of 2×10^5 cells/well in a 12 well dish in starvation media (RPMI+1% FBS+P/S). Following starvation for 16 hours, the compound is dosed into each well at a final DMSO concentration of 0.3% and cells are incubated o/n at 37° C. 5% CO2. The next day, cells are spun down at 1500 rpm, washed with PBS, and lysed in 100 uL Laemli sample buffer with β-mercaptoethanol.
15 microliters (uL) of cell lysates are loaded onto a 10% tris-glycine gel and run at 120 v for 2 hours or until dye front runs off of the gel. The protein is then transferred onto a PVDF membrane at 100 v for 60 min. PBST (PBS containing 0.1% Tween 20, such as 1 ml Tween per 1 L of PBS) is then made up and used for all washes and antibody incubations. The blot is blocked in 5% nonfat milk PBST for one hour.
The primary antibody (GSK-3α/β pTYR 279/216 at 1:1000 dilution Upstate cat#05-413) is then added in […] PBST overnight at 4° C. with gentle rocking. The blot is then washed in PBST for 5 min. This is then repeated 4 times. […]
(In general: A western blot detects proteins with antibodies after separation by electrophoresis.)

Test [2] has as its system E16 rat hippocampal or cortical neurons. As to the kind of experiment: Axonal Branching Assay. Type of test: cell-based. How it is done: Compounds are tested for the ability to enhance axonal branching in E16 rat hippocampal or cortical neurons. 1 mg/ml stock of PDL is diluted into 100 μg/ml in DI water. The glass coverslips are coated for at least 1 hour at 37° C. prior to doing the dissection. PDL is aspirated and the plates are rinsed with PBS and air-dried in hood. Cortical or hippocampal lobes are combined with 9 mL of Base media (Neurobasal+Pen/Strep) and put on ice. 1 mL of 10× trypsin solution is added and the mixture is swirled gently. The tissue is then digested via incubation in a 37° C. waterbath for 20 minutes. After 20 minutes, 10 μl/ml DNase (100 μL DNase) is added and the mixture is incubated for another 5 minutes. The cells are spun at 1000 rpm for 1 minute. The enzyme solution is then removed without removing any of the brain fragments sitting on the bottom. The solid is washed 3 times with Wash media (Neurobasal+10% and Pen/Strep). […] The cells are counted in a hemacytometer and seeded at 5000-10000 cells/well in a 24 well plate with glass coverslip inserts coated with PDL. […] Images are captured at 10× and 20× on an upright microscope and axonal branching is determined by quantification of area under threshold fluorescence of neurofilament Alexa 488 per cell. Dendritic branching is determined by quantification of area under threshold fluorescence of MAP2 Alexa 568 per cell. […]

T1 sequence (P49840 whole entry): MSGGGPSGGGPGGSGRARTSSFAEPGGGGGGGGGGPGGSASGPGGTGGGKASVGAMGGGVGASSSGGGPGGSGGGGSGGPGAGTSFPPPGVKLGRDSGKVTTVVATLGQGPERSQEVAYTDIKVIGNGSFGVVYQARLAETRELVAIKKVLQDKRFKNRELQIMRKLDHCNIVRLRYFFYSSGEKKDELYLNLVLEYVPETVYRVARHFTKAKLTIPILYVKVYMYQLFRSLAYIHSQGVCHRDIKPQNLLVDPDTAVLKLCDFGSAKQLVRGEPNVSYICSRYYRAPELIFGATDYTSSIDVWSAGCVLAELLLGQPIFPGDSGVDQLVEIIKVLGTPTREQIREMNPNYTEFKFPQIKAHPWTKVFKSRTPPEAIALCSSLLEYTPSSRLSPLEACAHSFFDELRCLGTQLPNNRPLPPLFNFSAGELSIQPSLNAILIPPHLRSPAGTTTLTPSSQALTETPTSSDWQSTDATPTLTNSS

On to `Cc1nc(-c2ccccc2Cl)nc(Nc2n[nH]c3ncc(F)cc23)c1C` [Compound I-1, N-(2-(2-chlorophenyl)-5,6-dimethylpyrimidin-4-yl)-5-fluoro-1H-pyrazolo[3,4-b]pyridin-3-amine], for which the IC50 in test [1] was below 0.5 nM. For the same compound, the “axonal and dendritic branching” value in test [2] (10 nM, 7 days) was “increased axonal and dendritic branching”. Moreover, the axon growth entry in test [2] (concentrations that have been shown to induce β-catenin) is “axon growth was inhibited”.

The IC50 is the concentration at which inhibition is half-maximal.
